Measured values: the NIST ThermoML archive (doi:10.1021/je060271a)
Values joined by “and” are separate entries in the source; they are usually repeats but may differ in a detail not shown here. Equal values may be shown once.

Details: Liquid, Vibrating tube method

CCCCC(=O)OCC(COC(=O)CCCC)(COC(=O)CCCC)COC(=O)CCCC [pentaerythritol tetrapentanoate]
Details | mass density
343.15 K, 33864 kPa | 1002.5 kg/m3
343.15 K, 33916 kPa | 1002.5 kg/m3
343.15 K, 33961 kPa | 1002.5 kg/m3
343.15 K, 34007 kPa | 1002.5 kg/m3
343.15 K, 34062 kPa | 1002.6 kg/m3
343.15 K, 34111 kPa | 1002.5 kg/m3
343.15 K, 34161 kPa | 1002.6 kg/m3
343.15 K, 34218 kPa | 1002.7 kg/m3
343.15 K, 34251 kPa | 1002.6 kg/m3
343.15 K, 34275 kPa | 1002.8 kg/m3
343.15 K, 34304 kPa | 1002.7 kg/m3
343.15 K, 34328 kPa | 1002.8 kg/m3
343.15 K, 34353 kPa | 1002.7 kg/m3
343.15 K, 34384 kPa | 1002.7 kg/m3
343.15 K, 34410 kPa | 1002.8 kg/m3
343.15 K, 34438 kPa | 1002.7 kg/m3
343.15 K, 34472 kPa | 1002.8 kg/m3
343.15 K, 34497 kPa | 1002.9 kg/m3
343.15 K, 34503 kPa | 1002.9 kg/m3
343.15 K, 34504 kPa | 1002.8 kg/m3
343.15 K, 34505 kPa | 1002.9 kg/m3
343.15 K, 34506 kPa | 1002.8 kg/m3
343.15 K, 34508 kPa | 1002.8 kg/m3
343.15 K, 34509 kPa | 1002.8 kg/m3
343.15 K, 34510 kPa | 1002.9 kg/m3 and 1002.8 kg/m3
343.15 K, 34512 kPa | 1002.8 kg/m3
343.15 K, 34514 kPa | 1002.8 kg/m3
343.16 K, 412.1 kPa | 978.6 kg/m3
343.16 K, 441.3 kPa | 978.8 kg/m3
343.16 K, 470.3 kPa | 978.8 kg/m3
343.16 K, 495.2 kPa | 978.9 kg/m3
343.16 K, 522.1 kPa | 978.8 kg/m3
343.16 K, 556.2 kPa | 979 kg/m3
343.16 K, 586.3 kPa | 978.8 kg/m3
343.16 K, 617.4 kPa | 979 kg/m3
343.16 K, 654 kPa | 979 kg/m3
343.16 K, 685.5 kPa | 979 kg/m3
343.16 K, 717.1 kPa | 979 kg/m3
343.16 K, 781.4 kPa | 979 kg/m3
343.16 K, 807.8 kPa | 979.1 kg/m3
343.16 K, 835.6 kPa | 979.2 kg/m3
343.16 K, 864.6 kPa | 979.2 kg/m3
343.16 K, 901.1 kPa | 979.2 kg/m3
343.16 K, 933.9 kPa | 979.2 kg/m3
343.16 K, 969.2 kPa | 979.2 kg/m3
343.16 K, 1013.1 kPa | 979.1 kg/m3
343.16 K, 1049.6 kPa | 979.2 kg/m3
343.16 K, 1077.9 kPa | 979.4 kg/m3
343.16 K, 1107.4 kPa | 979.3 kg/m3
343.16 K, 1133.1 kPa | 979.3 kg/m3
343.16 K, 1159.9 kPa | 979.4 kg/m3
343.16 K, 1187.6 kPa | 979.4 kg/m3
343.16 K, 1223.2 kPa | 979.4 kg/m3
343.16 K, 1254.5 kPa | 979.4 kg/m3
343.16 K, 1286.1 kPa | 979.4 kg/m3
343.16 K, 1325.9 kPa | 979.4 kg/m3
343.16 K, 1361.3 kPa | 979.5 kg/m3
343.16 K, 1398.1 kPa | 979.6 kg/m3
343.16 K, 1437 kPa | 979.8 kg/m3
343.16 K, 1485.1 kPa | 979.6 kg/m3
343.16 K, 1528.1 kPa | 979.7 kg/m3
343.16 K, 1574.3 kPa | 979.7 kg/m3
343.16 K, 1633.5 kPa | 979.6 kg/m3
343.16 K, 2223.1 kPa | 980.2 kg/m3
343.16 K, 2283.6 kPa | 980.2 kg/m3
343.16 K, 2321.1 kPa | 980.2 kg/m3
343.16 K, 2385.5 kPa | 980.4 kg/m3
343.16 K, 2425 kPa | 980.4 kg/m3
343.16 K, 2459.5 kPa | 980.4 kg/m3
343.16 K, 2536.9 kPa | 980.4 kg/m3
343.16 K, 2611.6 kPa | 980.6 kg/m3
343.16 K, 2873.3 kPa | 980.7 kg/m3
343.16 K, 2917.7 kPa | 980.7 kg/m3
343.16 K, 3019.5 kPa | 980.9 kg/m3
343.16 K, 3175.8 kPa | 980.9 kg/m3
343.16 K, 3224.4 kPa | 981.1 kg/m3
343.16 K, 3294.8 kPa | 981.1 kg/m3
343.16 K, 3352.1 kPa | 981.2 kg/m3
343.16 K, 3426.6 kPa | 981.2 kg/m3
343.16 K, 3497.5 kPa | 981.3 kg/m3
343.16 K, 3535.3 kPa | 981.2 kg/m3
343.16 K, 3629.9 kPa | 981.3 kg/m3
343.16 K, 3647.8 kPa | 981.5 kg/m3
343.16 K, 3662.8 kPa | 981.3 kg/m3
343.16 K, 3677.4 kPa | 981.3 kg/m3
343.16 K, 3695.4 kPa | 981.4 kg/m3
343.16 K, 3713.8 kPa | 981.4 kg/m3
343.16 K, 3733.2 kPa | 981.4 kg/m3
343.16 K, 3754.8 kPa | 981.5 kg/m3
343.16 K, 3785.2 kPa | 981.5 kg/m3
343.16 K, 3811.5 kPa | 981.5 kg/m3
343.16 K, 3838.2 kPa | 981.6 kg/m3
343.16 K, 3865.5 kPa | 981.5 kg/m3
343.16 K, 5098.9 kPa | 982.6 kg/m3
343.16 K, 5142.8 kPa | 982.5 kg/m3
343.16 K, 5167.8 kPa | 982.6 kg/m3
343.16 K, 5186.3 kPa | 982.5 kg/m3
343.16 K, 5201 kPa | 982.6 kg/m3
343.16 K, 5210.3 kPa | 982.5 kg/m3
343.16 K, 5224.5 kPa | 982.5 kg/m3
343.16 K, 5255.1 kPa | 982.6 kg/m3
343.16 K, 5300.5 kPa | 982.6 kg/m3
343.16 K, 5325.2 kPa | 982.7 kg/m3
343.16 K, 5345.4 kPa | 982.7 kg/m3
343.16 K, 5483.5 kPa | 982.9 kg/m3
343.16 K, 5624.6 kPa | 983 kg/m3
343.16 K, 5676.1 kPa | 983 kg/m3
343.16 K, 5700.4 kPa | 982.9 kg/m3
343.16 K, 5724.9 kPa | 982.9 kg/m3
343.16 K, 5754 kPa | 983 kg/m3
343.16 K, 5779.4 kPa | 983.1 kg/m3
343.16 K, 5804.5 kPa | 983.1 kg/m3
343.16 K, 5829.4 kPa | 982.9 kg/m3
343.16 K, 5859.3 kPa | 983 kg/m3
343.16 K, 5884.9 kPa | 983.1 kg/m3
343.16 K, 5910.4 kPa | 983.1 kg/m3
343.16 K, 5937.2 kPa | 983 kg/m3
343.16 K, 5968 kPa | 983.3 kg/m3
343.16 K, 5994 kPa | 983.1 kg/m3
343.16 K, 6020.7 kPa | 983.2 kg/m3
343.16 K, 6053.2 kPa | 983.2 kg/m3
343.16 K, 6080.4 kPa | 983.2 kg/m3
343.16 K, 6108.6 kPa | 983.3 kg/m3
343.16 K, 6137.6 kPa | 983.3 kg/m3
343.16 K, 6165.8 kPa | 983.2 kg/m3
343.16 K, 6199.5 kPa | 983.3 kg/m3
343.16 K, 6228 kPa | 983.4 kg/m3
343.16 K, 6262.9 kPa | 983.4 kg/m3
343.16 K, 6292.8 kPa | 983.4 kg/m3
343.16 K, 6323.1 kPa | 983.4 kg/m3
343.16 K, 6352.3 kPa | 983.4 kg/m3
343.16 K, 6382.9 kPa | 983.5 kg/m3
343.16 K, 6408.4 kPa | 983.5 kg/m3
343.16 K, 6433.7 kPa | 983.5 kg/m3
343.16 K, 6459.6 kPa | 983.5 kg/m3
343.16 K, 6491.2 kPa | 983.7 kg/m3
343.16 K, 6518.6 kPa | 983.6 kg/m3
343.16 K, 6545.1 kPa | 983.6 kg/m3
343.16 K, 6572.4 kPa | 983.7 kg/m3
343.16 K, 6599.5 kPa | 983.7 kg/m3
343.16 K, 6632.2 kPa | 983.7 kg/m3
343.16 K, 6659.3 kPa | 983.6 kg/m3
343.16 K, 6686.8 kPa | 983.6 kg/m3
343.16 K, 6719.6 kPa | 983.7 kg/m3
343.16 K, 6747.4 kPa | 983.8 kg/m3
343.16 K, 6804.2 kPa | 983.8 kg/m3
343.16 K, 6838.6 kPa | 983.8 kg/m3
343.16 K, 6899.2 kPa | 983.8 kg/m3
343.16 K, 6929.1 kPa | 983.9 kg/m3
343.16 K, 6959.5 kPa | 983.9 kg/m3
343.16 K, 6989.5 kPa | 984 kg/m3
343.16 K, 7026.2 kPa | 983.9 kg/m3
343.16 K, 7056.7 kPa | 984 kg/m3
343.16 K, 7088 kPa | 984.1 kg/m3
343.16 K, 7120.1 kPa | 984.1 kg/m3
343.16 K, 7261.4 kPa | 984.1 kg/m3
343.16 K, 7294.7 kPa | 984.3 kg/m3
343.16 K, 7328.4 kPa | 984.1 kg/m3
343.16 K, 7396.9 kPa | 984.2 kg/m3
343.16 K, 7437.8 kPa | 984.2 kg/m3
343.16 K, 7472.9 kPa | 984.3 kg/m3
